Measurements as given in patent US6921770B2 (priority 2000, dated 2005).

Each compound was assayed on rice blast fungi.
Type: in vivo, Pyricularia grisea

| SMILES | Inhibiting Ratio (%) (at 250 ppm) |
| --- | --- |
| Br.Cc1ccc(NC(=O)Cc2csc(=Nc3ccc([N+](=O)[O-])cc3)n2C)cc1 [Compound 16, 2-(4-nitrophenylimino)-3-methyl-4-[N-(4-methylphenyl)carbamoylmethyl]-1,3-thiazol-4-ine hydrobromide] | 100% |
| Br.Cn1c(CC(=O)Nc2cccc(Cl)c2)csc1=Nc1cccc([N+](=O)[O-])c1 [Compound 18, 2-(3-nitrophenylimino)-3-methyl-4-[N-(3-chlorophenyl)carbamoylmethyl]-1,3-thiazol-4-ine hydrobromide] | 93% |
| Br.Cn1c(CC(=O)Nc2cccc(Cl)c2)csc1=Nc1cccc(C(F)(F)F)c1 [Compound 19, 2-(3-trifluoromethylphenylimino)-3-methyl-4-[N-(3-chlorophenyl)carbamoylmethyl]-1,3-thiazol-4-ine hydrobromide] | 91% |
| Br.Cn1c(CC(=O)Nc2cccc(Cl)c2)csc1=Nc1ccc(C(F)(F)F)cc1 [Compound 20, 2-(4-trifluoromethylphenylimino)-3-methyl-4-[N-(3-chlorophenyl)carbamoylmethyl]-1,3-thiazol-4-ine hydrobromide] | 91% |
| Br.Cn1c(CC(=O)Nc2cccc(Cl)c2)csc1=Nc1cc(Cl)cc(Cl)c1 [Compound 21, 2-(3,5-dichlorophenylimino)-3-methyl-4-[N-(3-chlorophenyl)carbamoylmethyl]-1,3-thiazol-4-ine hydrobromide] | 88% |
| Br.CC(C)=CCOc1cc(N=c2scc(CC(=O)Nc3ccccc3)n2C)ccc1Cl [Compound 22, 2-(4-chloro-3-(3,3-dimethylallyloxy)phenylimino)-3-methyl-4-(N-phenylcarbamoylmethyl)-1,3-thiazol-4-ine hydrobromide] | 97% |
| Br.CC(C)OC(=O)c1cc(N=c2scc(CC(=O)Nc3ccccc3)n2C)ccc1Cl [Compound 23, 2-(4-chloro-3-isopropyloxycarbonylphenylimino)-3-methyl-4-(N-phenylcarbamoylmethyl)-1,3-thiazol-4-ine hydrobromide] | 96% |
| Br.Cc1ccc(Cl)cc1N=c1scc(CC(=O)Nc2ccccc2)n1C [Compound 24, 2-(5-chloro-2-methylphenylimino)-3-methyl-4-(N-phenylcarbamoymethyl)-1,3-thiazol-4-ine hydrobromide] | 97% |
| Br.Cc1cc(Cl)ccc1N=c1scc(CC(=O)Nc2ccccc2)n1C [Compound 25, 2-(4-chloro-2-methylphenylimino)-3-methyl-4-(N-phenylcarbamoylmethyl)-1,3-thiazol-4-ine hydrobromide] | 100% |
| Br.Cc1cc(Br)ccc1N=c1scc(CC(=O)Nc2ccccc2)n1C [Compound 26, 2-(4-bromo-2-methylphenylimino)-3-methyl-4-(N-phenylcarbamoylmethyl)-1,3-thiazol-4-ine hydrobromide] | 100% |
| Br.COc1ccccc1N=c1scc(CC(=O)Nc2ccc(C)cc2)n1C [Compound 28, 2-(2-methoxyphenylimino)-3-methyl-4-[N-(4-methylphenyl)carbamoylmethyl]-1,3-thiazol-4-ine hydrobromide] | 100% |
| Br.COc1ccc(N=c2scc(CC(=O)Nc3ccc(C)cc3)n2C)cc1 [Compound 29, 2-(4-methoxyphenylimino)-3-methyl-4-[N-(4-methylphenyl)carbamoylmethyl]-1,3-thiazol-4-ine hydrobromide] | 100% |
| Br.CCCCc1ccc(N=c2scc(CC(=O)Nc3ccc(C)cc3)n2C)cc1 [Compound 30, 2-[4-(n-butyl)phenylimino]-3-methyl-4-[N-(4-methylphenyl)carbamoylmethyl]-1,3-thiazol-4-ine hydrobromide] | 100% |
| Br.Cc1ccc(NC(=O)Cc2csc(=Nc3ccc(Cl)cc3C)n2C)cc1 [Compound 32, 2-(4-chloro-2-methylphenylimino)-3-methyl-4-[N-(4-methylphenyl)carbamoylmethyl]-1,3-thiazol-4-ine hydrobromide] | 100% |
| Br.Cc1ccc(NC(=O)Cc2csc(=Nc3ccc(Br)cc3C)n2C)cc1 [Compound 33, 2-(4-bromo-2-methylphenylimino)-3-methyl-4-[N-(4-methylphenyl)carbamoylmethyl]-1,3-thiazol-4-ine hydrobromide] | 100% |
| Br.Cc1ccc(NC(=O)Cc2csc(=Nc3cc(Cl)ccc3C)n2C)cc1 [Compound 34, 2-(5-chloro-2-methylphenylimino)-3-methyl-4-[N-(4-methylphenyl)carbamoylmethyl]-1,3-thiazol-4-ine hydrobromide] | 100% |
| Br.Cc1ccc(NC(=O)Cc2csc(=Nc3ccc(C)c(Cl)c3)n2C)cc1 [Compound 35, 2-(3-chloro-4-methylphenylimino)-3-methyl-4[N-(4-methylphenyl)carbamoylmethyl]-1,3-thiazol-4-ine hydrobromide] | 100% |
| Br.COc1ccc(N=c2scc(CC(=O)Nc3cccc(C(F)(F)F)c3)n2C)cc1 [Compound 36, 2-(4-methoxyphenylimino)-3-methyl-4-[N-(3-trifluoromethylphenyl)carbamoylmethyl]-1,3-thiazol-4-ine hydrobromide] | 98% |

| SMILES | Inhibiting Ratio (%) (at 250 ppm) |
| --- | --- |
| Br.Cn1c(CC(=O)Nc2ccccc2)csc1=Nc1ccc(Cl)c(C(F)(F)F)c1 [Compound 37, 2-(4-chloro-3-trifluoromethylphenylimino)-3-methyl-4-(N-phenylcarbamoylmethyl)-1,3-thiazol-4-ine hydrobromide] | 100% |
| Br.Cn1c(CC(=O)Nc2ccccc2)csc1=Nc1ccc(OC(F)(F)F)cc1 [Compound 39, 2-(4-trifluoromethoxyphenylimino)-3-methyl-4-(N-phenylcarbamoylmethyl)-1,3-thiazol-4-ine hydrobromide] | 99% |
| Br.Cn1c(CC(=O)Nc2ccccc2)csc1=Nc1ccc(Cl)cc1F [Compound 42, 2-(4-chloro-2-fluorophenylimino)-3-methyl-4-(N-phenylcarbamoylmethyl)-1,3-thiazol-4-ine hydrobromide] | 100% |
| Br.Cn1c(CC(=O)Nc2ccccc2)csc1=Nc1ccc(F)c(Cl)c1 [Compound 43, 2-(3-chloro-4-fluorophenylimino)-3-methyl-4-(N-phenylcarbamoylmethyl)-1,3-thiazol-4-ine hydrobromide] | 93% |
| Br.Cc1ccc(F)c(N=c2scc(CC(=O)Nc3ccccc3)n2C)c1 [Compound 44, 2-(2-fluoro-5-methylphenylimino)-3-methyl-4-(N-phenylcarbamoylmethyl)-1,3-thiazol-4-ine hydrobromide] | 95% |
| Br.Cn1c(CC(=O)Nc2ccccc2)csc1=Nc1cc(C(F)(F)F)cc(C(F)(F)F)c1 [Compound 45, 2-(3,5-ditrifluoromethylphenylimino)-3-methyl-4-(N-phenylcarbamoylmethyl)-1,3-thiazol-4-ine hydrobromide] | 93% |
| Br.Cc1ccc(NC(=O)Cc2csc(=Nc3ccc(C#N)cc3)n2C)cc1 [Compound 46] | 100% |
| Br.Cc1ccc(NC(=O)Cc2csc(=Nc3ccc(OC(F)(F)F)cc3)n2C)cc1 [Compound 47, 2-(4-trifluoromethoxyphenylimino)-3-methyl-4-[N-(4-methylphenyl)carbamoylmethyl]-1,3-thiazol-4-ine hydrobromide] | 100% |
| Br.Cc1ccc(NC(=O)Cc2csc(=Nc3cccc(F)c3)n2C)cc1 [Compound 48, 2-(3-fluorophenylimino)-3-methyl-4-[N-(4-methylphenyl)carbamoylmethyl]-1,3-thiazol-4-ine hydrobromide] | 100% |
| Br.Cc1ccc(NC(=O)Cc2csc(=Nc3ccc(Cl)cc3Cl)n2C)cc1 [Compound 49, 2-(2,4-dichlorophenylimino)-3-methyl-4-[N-(4-methylphenyl)carbamoylmethyl]-1,3-thiazol-4-ine hydrobromide] | 100% |
| Br.Cc1ccc(NC(=O)Cc2csc(=Nc3ccc(Cl)cc3F)n2C)cc1 [Compound 50, 2-(4-chloro-2-fluorophenylimino)-3-methyl-4-[N-(4-methylphenyl)carbamoylmethyl]-1,3-thiazol-4-ine hydrobromide] | 100% |
| Br.Cc1ccc(NC(=O)Cc2csc(=Nc3ccc(F)c(Cl)c3)n2C)cc1 [Compound 51, 2-(3-chloro-4-fluorophenylimino)-3-methyl-4-[N-(4-methylphenyl)carbamoylmethyl]-1,3-thiazol-4-ine hydrobromide] | 99% |
| Br.Cc1ccc(NC(=O)Cc2csc(=Nc3cc(C)ccc3F)n2C)cc1 [Compound 52, 2-(2-fluoro-5-methylphenylimino)-3-methyl-4-[N-(4-methylphenyl)carbamoylmethyl]-1,3-thiazol-4-ine hydrobromide] | 99% |
| Br.Cc1ccc(NC(=O)Cc2csc(=Nc3ccc(Cl)c(C(F)(F)F)c3)n2C)cc1 [Compound 53, 2-(4-chloro-3-trifluoromethylphenylimino)-3-methyl-4-[N-(4-methylphenyl)carbamoylmethyl]-1,3-thiazol-4-ine hydrobromide] | 99% |
| Br.Cc1ccc(NC(=O)Cc2csc(=Nc3cc(C(F)(F)F)cc(C(F)(F)F)c3)n2C)cc1 [Compound 54, 2-(3,5-ditrifluoromethylphenylimino)-3-methyl-4-[N-(4-methylphenyl)carbamoylmethyl]-1,3-thiazol-4-ine hydrobromide] | 96% |
| Br.Cc1ccc(NC(=O)Cc2csc(=Nc3ccc([N+](=O)[O-])cc3F)n2C)cc1 [Compound 55, 2-(2-fluoro-4-nitrophenylimino)-3-methyl-4-[N-(4-methylphenyl)carbamoylmethyl]-1,3-thiazol-4-ine hydrobromide] | 96% |
| Br.CCCCc1ccc(N=c2scc(CC(=O)Nc3cccc(Cl)c3)n2C)cc1 [Compound 56, 2-[4-(n-butyl)phenylimino]-3-methyl-4-[N-(3-chlorophenyl)carbamoylmethyl]-1,3-thiazol-4-ine hydrobromide] | 96% |
